Laboratory results published in patent publication US20110256557A1, “IDENTIFYING PARATHYROID HORMONE AGONISTS AND ANTAGONISTS” (DISCOVERYBIOMED, INC., priority 2008, published 2011).
Each block holds one molecule with its values, some of them ahead of it.

Columns and labels:
axin-LRP6 binding = test: Co-IP of axin binding to LRP6 in HEK293 cells; assay type: cell-based
Procedure: (§1) Cells were harvested in cavitation buffer (5 mM HEPES, pH 7.4, 3 mM MgCl2, 1 mM EGTA, 250 mM sucrose) containing protease and phosphatase inhibitors and homogenized by nitrogen cavitation (200 p.s.i., for 5 minutes) in a cell disruption bomb (Parr Instrument Co.; Moline, Ill.). The cell homogenate was centrifuged twice at 700 g for 10 minutes to pellet the nuclei. The supernatant was further centrifuged at 100,000 g (Beckman SW50.1 rotor) for 1 hour to separate the membrane and cytosol fractions, and the resulting membrane pellet was washed three times with cavitation buffer before use in the assays (Zhang et al., Biochem. J. 343:541-9 (1999)). Immunoprecipitation and Western blot analysis of cell lysates were performed as described previously (Wan et al., Am. J. Pathol. 166:1379-92 (2005)).

LRP6 = LRP6 phosphorylation at PPPSP motifs, western blotting with Ab1490, UMR-106 cells; assay type: cell-based, rat; settings: cells not given
Procedure: as §1
As phosphorylation of LRP6 at the PPPSP motifs plays a crucial role in activating downstream β-catenin signaling by Wnt, whether PTH induces phosphorylation of LRP6 at PPPSP motifs (Mao et al., Mol. Cell. 7:801-9 (2001); Tamai et al., Mol. Cell. 13:149-56 (2004); Davidson et al., Nature 438:867-72 (2005); Zeng et al., Nature 438:873-7 (2005)). Immunoprecipitated LRP6 from extracts of PTH-treated UMR-106 cells were monitored for their phosphorylation, by western blotting, with an antibody that recognizes phosphorylated PPPSP motifs (Ab1490) (Tamai et al., Mol. Cell. 13:149-56 (2004)). […] Phosphorylation of PPPSP motifs is required for axin recruitment from cytoplasm to LRP6 at cell membrane. […] Fz8CRD, a competitive inhibitor of the Wnt receptor Fz (Hsieh et al., Proc. Natl. Acad. Sci. USA 96:3546-55 (1999)), was used to exclude the possibility that these PTH effects are mediated through promotion of Wnts production or sensitization of Wnt-stimulated signaling. […] In contrast, LRP6N blocked PTH-stimulated LRP6 phosphorylation (FIG. 33).

β-catenin = test: Western blot of cytosolic β-catenin in UMR-106 cells; assay type: cell-based, rat
Procedure: as §1

[1] = system: luciferase reporter bearing TCF/LEF binding elements; test: TCF/LEF luciferase reporter assay in UMR-106 cells; assay type: cell-based, rat; settings: for effect on PTH-stimulated TCF/LEF luciferase (transcriptional) activity: UMR-106 cells treated with PTH
Description: HEK293, UMR-106 and mouse embryonic fibroblast (MEF) cells were maintained in Dulbecco's Modified Eagle Medium (DMEM) with 10% Fetal Calf Serum (FCS). Mouse Wnt3a conditioned medium (Wnt3a CM) was produced from mouse L cells stably transfected with mouse Wnt3a (American Type Culture Collection; Manassas, Va.) and control conditioned medium (Control CM) was from non-transfected L cells. IgG, LRP6N-IgG, DKK1, Sclerostin, VSVG-LRP6N and Myc-Fz8CRD conditioned media were produced from HEK 293 cells transfected with the individual plasmids. Transfections were carried out using lipofectamine reagent (Invitrogen; Carlsbad, Calif.). Luciferase assays were carried out in either UMR-106 or HEK 293 cells as described previously (Wan et al., Am. J. Pathol. 166:1379-92 (2005)), with 0.3 μg of TCF-Luc reporter plasmid plus 50 ng of Renilla luciferase plasmid (internal control) per well in the 12-well plate. Experiments were repeated at least three times with triplicate for each experiment.

[2] = system: TCF/LEF luciferase reporter; test: High-throughput screen validation, TCF/LEF luciferase reporter in osteosarcoma cell line; assay type: cell-based; settings: 96-well plate
Procedure: Osteosarcoma cells were plated in a 96 well plate. The cells were transiently transfected with the TCF/LEF luciferase reporter using LipofectAMINE PLUS (Invitrogen; Carlsbad, Calif.). The cells were incubated overnight at 37° C. in OptiMEM-1 serum-free medium with the transfection reagents. The cells were washed and serum-containing medium was added to the cells for 8 hours. The serum-containing medium was replaced with serum-free medium and the cells were stimulated overnight with PTH and WNT3a. Supernatant from the stimulated cells was collected for detection of osteosclerostin, and the cells were subjected to a luciferase assay as previously described (Wan et al., Am. J. Pathol. 166:1379-92 (2005)).
To determine agonists and antagonists of the additive signaling of the PTH receptor and the WNT receptor, (as well as any co-receptors) in bone cells, a high-throughput screen is designed. […] An osteosarcoma cell line is transiently transfected with a TCF/LEF luciferase reporter. The cells are treated with WNT3a and PTH and luciferase activity is determined (FIG. 46).

PTH1R on cell surface = target: T1, PTH1R on cell surface (Homo sapiens, UniProt Q03431); test: Cell surface binding by immunofluorescence colocalization assay; assay type: cell-based
T1 construct: HA; expressed in transfected cells; LRP6N-IgG conditioned medium came from transfected HEK 293 cells
T1 sequence (Q03431 27-593): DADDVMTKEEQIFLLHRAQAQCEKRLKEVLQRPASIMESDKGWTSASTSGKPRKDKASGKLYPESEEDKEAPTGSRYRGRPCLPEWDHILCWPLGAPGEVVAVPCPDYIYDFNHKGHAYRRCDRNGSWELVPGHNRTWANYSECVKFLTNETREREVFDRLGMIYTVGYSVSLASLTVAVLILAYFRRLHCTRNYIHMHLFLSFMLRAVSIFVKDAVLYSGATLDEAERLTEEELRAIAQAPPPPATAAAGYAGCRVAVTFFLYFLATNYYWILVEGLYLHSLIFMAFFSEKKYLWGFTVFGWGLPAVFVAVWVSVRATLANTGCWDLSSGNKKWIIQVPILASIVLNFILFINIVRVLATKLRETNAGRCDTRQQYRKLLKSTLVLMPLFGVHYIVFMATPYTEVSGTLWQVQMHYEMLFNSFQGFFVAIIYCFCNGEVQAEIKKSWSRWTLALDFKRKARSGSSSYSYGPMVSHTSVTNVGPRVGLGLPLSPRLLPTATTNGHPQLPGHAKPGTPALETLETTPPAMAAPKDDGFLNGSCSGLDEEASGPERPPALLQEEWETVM
Procedure: Cells were transfected with HA-PTH1R and treated with IgG conditioned medium or LRP6N-IgG conditioned medium for 1 hour followed by PTH (1-84) treatment for 15 minutes. Cells were then washed with phosphate buffered saline (PBS), fixed with 4% paraformaldehyde, permeabilized with 0.1% Triton X-100, and incubated with primary antibody followed by incubation with chromophore-conjugated secondary antibody. Digital pictures were taken using an Olympus, IX TRINOC camera fitted to an Olympus, IX70 Inverted Research Microscope (Olympus; Center Valley, Pa.) with objective lenses of Hoffman Modulation Contrast®, HMC 10 LWD PL FL, 0.3NA ∝/1, at room temperature, and processed using MagnaFire® SP imaging software. A […] TCs SP2 system was used for confocal imaging. The ratios of the number of cells showing in green to the number of cells showing in red were calculated. For each treatment, 100 cells on each of three different slides were analyzed.

LRP6-PTH1R complex = target: T2, LRP6-PTH1R complex (Rattus norvegicus, UniProt P25961); test: Co-immunoprecipitation of endogenous LRP6 and PTH1R in UMR-106 cells; assay type: cell-based
T2 construct: endogenous LRP6 and endogenous PTH1R in UMR-106 cells; endogenous in cells; host or cells: UMR-106
T2 sequence (P25961 27-591): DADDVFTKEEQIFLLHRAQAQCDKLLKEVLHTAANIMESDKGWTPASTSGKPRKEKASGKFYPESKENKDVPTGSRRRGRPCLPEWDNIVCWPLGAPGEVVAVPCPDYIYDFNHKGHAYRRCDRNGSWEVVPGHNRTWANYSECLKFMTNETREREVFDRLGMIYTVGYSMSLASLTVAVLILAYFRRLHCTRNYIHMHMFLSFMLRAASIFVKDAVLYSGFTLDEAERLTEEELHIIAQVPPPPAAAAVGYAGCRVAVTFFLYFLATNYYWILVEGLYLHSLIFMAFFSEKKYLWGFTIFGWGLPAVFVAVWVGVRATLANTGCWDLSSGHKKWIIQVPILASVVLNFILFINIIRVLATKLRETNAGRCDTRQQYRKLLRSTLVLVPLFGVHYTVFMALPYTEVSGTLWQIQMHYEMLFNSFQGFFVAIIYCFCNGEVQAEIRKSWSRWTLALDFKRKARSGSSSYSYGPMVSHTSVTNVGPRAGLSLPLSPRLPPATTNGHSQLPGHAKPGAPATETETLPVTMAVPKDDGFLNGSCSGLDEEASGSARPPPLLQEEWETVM
Procedure: as §1

Molecule: O=S(=O)(NCCNC/C=C/c1ccc(Br)cc1)c1cccc2cnccc12 [H89]
- effect on binding of axin to LRP6 in cells treated with PTH (axin-LRP6 binding; PTH-treated cells): reduced
- effect on Wnt3a-stimulated LRP6 phosphorylation (LRP6): did not affect
- effect on PTH-induced β-catenin stabilization (β-catenin): reduced
- effect on Wnt3a-stimulated β-catenin stabilization (β-catenin): did not affect
- effect on Wnt3a-stimulated β-catenin-dependent transcription activity (TCF4/LEF luciferase) ([1]; UMR-106 cells): did not affect
- effect on PTH-stimulated TCF/LEF luciferase (transcriptional) activity [1]: reduced

Molecule: PTH (39-84): C-terminal fragment of PTH; binds PTH1R but does not activate PKA (APLAPRDAGSQRPRKKEDNVLVESHEKSLGEADKADVNVLTKAKSQ; Parathyroid hormone; UniProt P01270 70-115, looked up, fragment)
- inducing axin-LRP6 binding compared with PTH (1-84) (axin-LRP6 binding): much less effective than PTH (1-84)
- altering the stability of β-catenin compared with PTH (1-84) (β-catenin): much less effective than PTH (1-84)
- activating β-catenin signaling (TCF4/LEF luciferase) compared with PTH (1-84) ([1]; UMR-106 cells): much less effective than PTH (1-84)

Molecule: WNT3a
- stimulation of the TCF/LEF luciferase reporter, treatment alone [2]: stimulates

- immuno-colocalization with PTH1R on cell surface (PTH1R on cell surface; with addition of PTH ligand (PTH (1-84), 15 minutes)): 82.3%
- immuno-colocalization with PTH1R on cell surface (PTH1R on cell surface; without PTH ligand, cells transfected with HA-PTH1R): 22.8%
B1: LRP6N-IgG: LRP6 extracellular domain fused with IgG (protein)
chain: APLLLYANRRDLRLVDATNGKENATIVVGGLEDAAAVDFVFSHGLIYWSDVSEEAIKRTEFNKTESVQNVVVSGLLSPDGLACDWLGEKLYWTDSETNRIEVSNLDGSLRKVLFWQELDQPRAIALDPSSGFMYWTDWGEVPKIERAGMDGSSRFIIINSEIYWPNGLTLDYEEQKLYWADAKLNFIHKSNLDGTNRQAVVKGSLPHPFALTLFEDILYWTDWSTHSILACNKYTGEGLREIHSDIFSPMDIHAFSQQRQPNATNPCGIDNGGCSHLCLMSPVKPFYQCACPTGVKLLENGKTCKDGATELLLLARRTDLRRISLDTPDFTDIVLQLEDIRHAIAIDYDPVEGYIYWTDDEVRAIRRSFIDGSGSQFVVTAQIAHPDGIAVDWVARNLYWTDTGTDRIEVTRLNGTMRKILISEDLEEPRAIVLDPMVGYMYWTDWGEIPKIERAALDGSDRVVLVNTSLGWPNGLALDYDEGKIYWGDAKTDKIEVMNTDGTGRRVLVEDKIPHIFGFTLLGDYVYWTDWQRRSIERVHKRSAEREVIIDQLPDLMGLKATNVHRVIGSNPCAEENGGCSHLCLYRPQGLRCACPIGFELISDMKTCIVPEAFLLFSRRADIRRISLETNNNNVAIPLTGVKEASALDFDVTDNRIYWTDISLKTISRAFMNGSALEHVVEFGLDYPEGMAVDWLGKNLYWADTGTNRIEVSKLDGQHRQVLVWKDLDSPRALALDPAEGFMYWTEWGGKPKIDRAAMDGSERTTLVPNVGRANGLTIDYAKRRLYWTDLDTNLIESSNMLGLNREVIADDLPHPFGLTQYQDYIYWTDWSRRSIERANKTSGQNRTIIQGHLDYVMDILVFHSSRQSGWNECASSNGHCSHLCLAVPVGGFVCGCPAHYSLNADNRTCSAPTTFLLFSQKSAINRMVIDEQQSPDIILPIHSLRNVRAIDYDPLDKQLYWIDSRQNMIRKAQEDGSQGFTVVVSSVPSQNLEIQPYDLSIDIYSRYIYWTCEATNVINVTRLDGRSVGVVLKGEQDRPRAVVVNPEKGYMYFTNLQERSPKIERAALDGTEREVLFFSGLSKPIALALDSRLGKLFWADSDLRRIESSDLSGANRIVLEDSNILQPVGLTVFENWLYWIDKQQQMIEKIDMTGREGRTKVQARIAQLSDIHAVKELNLQEYRQHPCAQDNGGCSHICLVKGDGTTRCSCPMHLVLLQDELSCGEPPTCSPQQFTCFTGEIDCIPVAWRCDGFTECEDHSDELNCPVCSESQFQCASGQCIDGALRCNGDANCQDKSDEKNCEVLCLIDQFRCANGQCIGKHKKCDHNVDCSDKSDELDCYPTEEPAPQA
modifications: left off: a dimerising Fc or GST

- effect on PTH-induced association of endogenous LRP6 with PTH1R (LRP6-PTH1R complex): blocked
B2: LRP6N: soluble N-terminal (extracellular) domain of LRP6; acts as a dominant-negative in PTH signaling (protein)
chain: B1 chain
modifications: left off: a dimerising Fc or GST
notes: soluble N-terminal (extracellular) domain of LRP6; acts as a dominant-negative in PTH signaling
- effect on PTH-stimulated LRP6 phosphorylation (LRP6; endogenous LRP6): blocked
- effect on PTH-stimulated TCF/LEF luciferase (transcriptional) activity [1]: inhibited
